Measurements taken from patent US20030207843A1, “Treatment of drug-resistant human immunodeficiency virus infection” (priority 1999, published 2003).

Columns and labels:
NL4-3 (wild type virus) = experiment: p24 reduction assay in MT-2 cells, NL4-3; format: cell-based, HIV-1
HIV-1LAI T215Y = experiment: p24 reduction assay in MT-2 cells, T215Y; format: cell-based; details: Table 1, MOI 0.01
Experimental: (§1) Cells. MT-2 cells (AIDS Research and Reference Reagent Program, National Institute of Allergy and Infectious Diseases, National Institutes of Health) were maintained in RPMI 1640 supplemented with 10% fetal bovine serum (FBS; JRH Biosciences, Lenexa, Kans.), 10 mM HEPES buffer, 50 IU/ml penicillin and 50 μg/ml streptomycin.
(§2) Antiviral Susceptibility Assays. The antiviral activity of each compound was determined by inoculating MT-2 cells with HIV-1LAI at a multiplicity of infection (MOI) of 0.01 TCID50/cell, followed by incubation in the presence of three-fold serial drug dilutions (3 wells per dilution) (see Mellors, et. al., Antimicrob. Agents Chemother. 39:1087-1092). Five or seven days after infection, culture supernatants were harvested, lysed with 0.5% triton-X 100 and assayed for p24 antigen concentration using a commercial ELISA assay (DuPont, NEN Products, Wilmington, Del.). The antiviral activity of the compounds is expressed as the IC50, which is the concentration required to inhibit 50% of p24 antigen production. The fold-resistance of a test virus is calculated by dividing the IC50 of the test virus by the IC50 of the HIV-1LAI control virus.
(§3) Generation of Mutant Recombinant HIV-1. HIV-1 containing the desired mutations were generated by oligonucleotide directed mutagenesis (Altered Sites II, Promega) as previously described (Mellors, et. al., Molecular Pharm. 41:446-451). After mutagenesis, mutant RT was subcloned into the pxxHIV-1LAI cloning vector using the silent XmaI and XbaI restriction sites located at the 5′ and 3′ ends of RT. Clones were DNA sequenced to verify the presence of the desired mutation(s) and electroporated into MT-2 cells as described above to generate infectious mutant recombinant HIV-1.
Mutant RT was generated via oligonucleotide-directed mutagenesis and ligated into the pXXHIV-1LAI cloning vector. Cloning was facilitated by the presence of two silent restriction sites at the 5′ and 3′ ends (Xma1 and Xba1, respectively) of pXXHIV-1LAI RT. […]

HIV-1LAI E89G = experiment: p24 reduction assay in MT-2 cells, E89G; format: cell-based; details: Table 7; for EC50: E89G; for Fold-resistance: E89G relative to wild type virus
Experimental: as §1, §2, §3
(§4) Mutant RT was generated via oligonucleotide-directed mutagenesis and ligated into the pXXHIV-1LAI cloning vector. Cloning was facilitated by the presence of two silent restriction sites at the 5′ and 3′ ends (Xma1 and Xba1, respectively) of pXXHIV-1LAI RT. Infectious mutant recombinant HIV-1 was generated by electroporating MT-2 cells with mutated pXXHIV-1LAI clones. The presence of the desired mutations was verified by DNA sequencing.
(§5) Invention compounds were also evaluated against a panel of HIV-1LAI derived recombinants resistant to PFA and the PFA invention compounds, as shown in Table 7.

HIV-1LAI Q161L/H208Y = experiment: p24 reduction assay in MT-2 cells, Q161L/H208Y; format: cell-based; details: Table 7; for EC50: Q161L/H208Y; for Fold-resistance: Q161L/H208Y relative to wild type virus
Experimental: as §1, §2, §3, §4, §5

[1] = system: multidrug-resistant HIV-1 clinical isolate 11588p1; experiment: p24 reduction assay in MT-2 cells, 11588p1; format: cell-based
Experimental: as §1
as §2, with “[…],” for “was determined by inoculating MT-2 cells with HIV-1LAI at a multiplicity of infection (MOI) of 0.01 TCID50/cell,”
(§6) The multi-drug resistant HIV-1 strains, 11163p1 and 11588p1, are human clinical isolates having the RT mutations indicated. HIV-1 strains treated with the lipid analogs of the present invention include wild type, e.g., xxLAI, and the like, single mutation, e.g., xxLAI MI 84V (resistant to 3TC), xxLAI L74V (resistant to ddI and ddC), xxLAI K65R (resistant to ddI, ddC, DAPD, DXG, tenofovir, and adefovir), xxLAI T215Y (resistant to AZT), and the like, double mutations, e.g., xxLAI M41 L/T215Y (resistant to AZT), xxLAI MI 84V/T215Y (resistant to 3TC and AZT), and the like, and multiple mutations, e.g., xxLAI 4XAZT ((D67N, K70R, T215Y, K219Q) resistant to AZT)), xxLAI 4XAZT/M184V ((D67N, K70R, M 184V, T215Y, K219Q) resistant to AZT and 3TC), xxLAI M5456-12 (AZT+NNRTI resistant: D67N, K70R, K103N, T215Y), xxLAI G2-3g (AZT/3TC co-resistant: M41L, D67N, M184V, H208Y, L210W, R211K, L214F, T215Y, 1293V, E297A), 11163 (multinucleoside resistant virsus: M41L, A62V, V751, F77L, K103N, F116Y, Q151M, Y181C, M184V), 11588 (multinucleoside resistant virsus: A62V, K65R, K70R, V751, F77L, F116Y, Q151M, M184V, K219Q), and the like.

[2] = system: HIV-1 G2-3g (molecularly cloned isolate co-resistant to AZT and 3TC); experiment: p24 reduction assay in MT-2 cells, G2-3g; format: cell-based; details: for EC50: G2-3g; for Fold-resistance: G2-3g relative to wild type virus
Experimental: as §1, §2, §6

[3] = system: 9GC (multinucleoside resistant recombinant virus D67E, S68T, T69S[SA insert], T215Y); experiment: p24 reduction assay in MT-2 cells, virus 9GC; format: cell-based, HIV-1; details: Table 4; for Fold-resistance: virus 9GC relative to wild type virus; for EC50: virus 9GC, mean ± SD
Experimental: as §1, §2
The MNR panel consisted of a virus containing the mutations V75I, F77L, F116Y and […], a virus containing the T69S[SA insert], and a clinical isolate carrying the classic MNR genotype (62V/751/77L/116Y/151M). Each of the PFA invention compounds retained potency against these viruses with fold resistance values of <2.

HIV-1LAI K65R = experiment: p24 reduction assay in MT-2 cells, K65R; format: cell-based; details: for EC50: K65R; for Fold-resistance: K65R relative to wild type virus
Experimental: as §1, §2, §3, §4, §6

[4] = Human immunodeficiency virus 1, MT2
[5] = Human immunodeficiency virus 1, MT2, Table 1, MOI 0.01

## CCCCCCCCCCCCCCCCCCOC[C@@H](O)COP(=O)(O)C(=O)O [B-PFA, 1-O-octadecyl-sn-glycero-3-PFA]
NL4-3 (wild type virus); Table 4, mean ± SD
  EC50: 2600 ± 1500 nM
HIV-1LAI T215Y
  EC50: 840 nM
HIV-1LAI E89G
  EC50: > 30 µM
  Fold-resistance: (>17.2)
HIV-1LAI Q161L/H208Y
  EC50: > 30 µM
  Fold-resistance: (>17.2)
[1]; Table 2, MOI 0.05
  EC50: 9.31 µM
[2]; Table 1, MOI 0.01
  EC50: 1470 nM
[2]; Table 5
  Fold-resistance: (0.9)
[2]; Table 5, mean ± SD
  EC50: 1670 ± 950 nM
[3]
  Fold-resistance: (1.6)
  EC50: 4.1 ± 1.2 µM
HIV-1LAI K65R; Table 1, MOI 0.01
  EC50: 17.7 µM
HIV-1LAI K65R; Table 3
  Fold-resistance: (8.2)
HIV-1LAI K65R; Table 3, mean ± SD
  EC50: 14.7 ± 6.61 µM

## O=C(O)P(=O)(O)O [PFA, phosphonoformate, reference compound]
NL4-3 (wild type virus); Human immunodeficiency virus 1, NL43, MT2, Table 4, mean ± SD
  EC50: 15100 ± 6100 nM
HIV-1LAI E89G; [4]
  EC50: 241 µM
HIV-1LAI Q161L/H208Y; [4]
  EC50: 126 µM
[1]; Human immunodeficiency virus 1, MT2, Table 2, MOI 0.05
  EC50: 23.5 µM
[2]; [5]
  EC50: 7600 nM
[2]; Human immunodeficiency virus 1, MT2, Table 5, mean ± SD
  EC50: 8850 ± 3490 nM
[2]; Table 5
  Fold-resistance: (0.5)
[3]; [4]
  EC50: 13.2 ± 12.8 µM
[3]
  Fold-resistance: (1.1)
HIV-1LAI K65R; [5]
  EC50: 57.3 µM
HIV-1LAI K65R; Human immunodeficiency virus 1, MT2, Table 3, mean ± SD
  EC50: 67 ± 22.8 µM
HIV-1LAI K65R; Table 3
  Fold-resistance: (3.8)

## CCCCCCCCCCCCCCCCCCOC[C@H](COP(=O)(O)C(=O)O)OCC [EB-PFA, 1-O-octadecyl-2-O-ethyl-sn-glycero-3-PFA]
NL4-3 (wild type virus); Table 4, mean ± SD
  EC50: 200 ± 200 nM
HIV-1LAI T215Y
  EC50: 140 nM
HIV-1LAI E89G
  EC50: > 26.1 µM
  Fold-resistance: (>29.0)
HIV-1LAI Q161L/H208Y
  EC50: 7.02 µM
[1]; Table 2, MOI 0.05
  EC50: 0.73 µM
[2]; Table 1, MOI 0.01
  EC50: 320 nM
[2]; Table 5
  Fold-resistance: (0.5)
[2]; Table 5, mean ± SD
  EC50: 300 ± 40 nM
[3]
  Fold-resistance: (0)
  EC50: 0.2 ± 0.3 µM
HIV-1LAI K65R; Table 1, MOI 0.01
  EC50: 3.22 µM
HIV-1LAI K65R; Table 3
  Fold-resistance: (4.5)
HIV-1LAI K65R; Table 3, mean ± SD
  EC50: 2.91 ± 1.3 µM

## CCCCCCCCCCCCCCCCCCOC[C@H](COP(=O)(O)C(=O)O)OC [MB-PFA, 1-O-octadecyl-2-O-methyl-sn-glycero-3-PFA]
NL4-3 (wild type virus); Table 4, mean ± SD
  EC50: 2300 ± 1900 nM
HIV-1LAI T215Y
  EC50: 270 nM
HIV-1LAI E89G
  EC50: > 30 µM
  Fold-resistance: (>39.0)
HIV-1LAI Q161L/H208Y
  EC50: 12.8 µM
  Fold-resistance: 9.00 (17.7)
[1]; Table 2, MOI 0.05
  EC50: 1.16 µM
[2]; Table 1, MOI 0.01
  EC50: 260 nM
[2]; Table 5
  Fold-resistance: (0.8)
[2]; Table 5, mean ± SD
  EC50: 400 ± 260 nM
[3]
  Fold-resistance: (0)
HIV-1LAI K65R; Table 1, MOI 0.01
  EC50: 1.24 µM
HIV-1LAI K65R; Table 3
  Fold-resistance: (3.3)
HIV-1LAI K65R; Table 3, mean ± SD
  EC50: 1.66 ± 0.72 µM
